Where “and” joins values, the source holds several entries; their conditions need not be identical. Equal values may be shown once.
Assay: molar heat capacity at constant pressure
Conditions: 101.33 kPa, Crystal, Small (less than 1 g) adiabatic calorimetry

O.O.O.O.O.O=S(=O)([O-])[O-].[Cu+2] [copper(II) sulfate pentahydrate]
Conditions	molar heat capacity at constant pressure
101.73 K	117.59 J/K/mol
101.86 K	118.59 J/K/mol
102.08 K	117.97 J/K/mol
102.79 K	118.7 J/K/mol
102.91 K	119.62 J/K/mol
103.83 K	120.63 J/K/mol
103.84 K	119.78 J/K/mol
103.89 K	120.08 J/K/mol
103.96 K	120.8 J/K/mol
104.14 K	120.09 J/K/mol
104.36 K	121.29 J/K/mol
104.89 K	120.9 J/K/mol
105.01 K	121.85 J/K/mol
105.93 K	122.01 J/K/mol
106.06 K	122.97 J/K/mol
106.2 K	122.39 J/K/mol
106.46 K	123.36 J/K/mol
106.97 K	123.24 J/K/mol
106.98 K	123.14 J/K/mol
107.12 K	123.92 J/K/mol
107.46 K	124.56 J/K/mol
108.03 K	124.25 J/K/mol
108.17 K	125.23 J/K/mol
108.27 K	124.44 J/K/mol
109.08 K	125.36 J/K/mol
109.1 K	126.13 J/K/mol
109.23 K	126.17 J/K/mol
110 K	126.2 J/K/mol
110.06 K	126.42 J/K/mol
110.13 K	126.46 J/K/mol
110.29 K	127.26 J/K/mol
110.33 K	126.54 J/K/mol
110.57 K	127.78 J/K/mol
111.18 K	127.44 J/K/mol
111.37 K	128.56 J/K/mol
111.74 K	128.74 J/K/mol
112.23 K	128.52 J/K/mol
112.4 K	128.7 J/K/mol
112.43 K	129.57 J/K/mol
113.16 K	129.6 J/K/mol
113.29 K	129.54 J/K/mol
113.49 K	130.69 J/K/mol
113.69 K	130.98 J/K/mol
114.34 K	130.68 J/K/mol
114.38 K	131.41 J/K/mol
114.47 K	130.81 J/K/mol
114.56 K	131.62 J/K/mol
115.39 K	131.78 J/K/mol
115.62 K	132.81 J/K/mol
116.25 K	132.9 J/K/mol
116.44 K	132.81 J/K/mol
116.54 K	133.18 J/K/mol
116.68 K	133.94 J/K/mol
116.81 K	134.01 J/K/mol
117.02 K	134.2 J/K/mol
117.5 K	133.84 J/K/mol
117.75 K	134.93 J/K/mol
118.55 K	134.96 J/K/mol
118.62 K	135 J/K/mol
118.81 K	136.22 J/K/mol
119.36 K	135.88 J/K/mol
119.63 K	136.14 J/K/mol
119.67 K	137.03 J/K/mol
119.88 K	137.17 J/K/mol
119.93 K	137.32 J/K/mol
120 K	136.3 J/K/mol
120.69 K	136.94 J/K/mol and 137.14 J/K/mol
120.95 K	138.19 J/K/mol
121.74 K	138.15 J/K/mol
122.02 K	139.11 J/K/mol
122.32 K	139.58 J/K/mol
122.46 K	138.97 J/K/mol
122.8 K	139.17 J/K/mol and 139.26 J/K/mol
123.07 K	140.4 J/K/mol
123.09 K	140.26 J/K/mol
123.86 K	140.26 J/K/mol
124.16 K	141.38 J/K/mol
124.88 K	141.31 J/K/mol
124.91 K	141.44 J/K/mol
124.97 K	142.22 J/K/mol
125.23 K	142.7 J/K/mol
125.57 K	142.11 J/K/mol
125.97 K	142.63 J/K/mol
126.2 K	143.67 J/K/mol
126.3 K	143.66 J/K/mol
126.97 K	143.36 J/K/mol
127.03 K	143.46 J/K/mol
127.37 K	144.66 J/K/mol
127.62 K	145 J/K/mol
128.08 K	144.35 J/K/mol
128.47 K	145.88 J/K/mol
128.7 K	145.15 J/K/mol
129.05 K	145.44 J/K/mol
129.14 K	145.37 J/K/mol
129.38 K	146.91 J/K/mol
129.54 K	146.79 J/K/mol
130 K	146.3 J/K/mol
130.2 K	146.58 J/K/mol
130.3 K	147.58 J/K/mol
130.62 K	147.67 J/K/mol
131.13 K	147.52 J/K/mol
131.25 K	147.55 J/K/mol
131.69 K	149.05 J/K/mol
131.82 K	148.2 J/K/mol
132.31 K	148.61 J/K/mol
132.53 K	150.01 J/K/mol
132.77 K	150.08 J/K/mol
132.95 K	150.13 J/K/mol
133.22 K	149.57 J/K/mol
133.37 K	149.93 J/K/mol
133.85 K	151.35 J/K/mol
134.43 K	150.8 J/K/mol
134.92 K	152.13 J/K/mol
134.93 K	151.23 J/K/mol
135.3 K	151.53 J/K/mol
135.49 K	151.95 J/K/mol
135.59 K	152.75 J/K/mol
135.69 K	153.09 J/K/mol
136 K	153.04 J/K/mol
136.56 K	152.7 J/K/mol
137.07 K	154.23 J/K/mol
137.39 K	153.55 J/K/mol
137.61 K	153.75 J/K/mol
138.05 K	154.26 J/K/mol
138.14 K	155.44 J/K/mol
138.23 K	155.31 J/K/mol
138.67 K	154.9 J/K/mol
138.85 K	156.32 J/K/mol
139.22 K	156.25 J/K/mol
139.47 K	155.53 J/K/mol
139.72 K	155.9 J/K/mol
140 K	156 J/K/mol
140.3 K	157.18 J/K/mol
140.78 K	156.94 J/K/mol
140.87 K	157.92 J/K/mol
141.16 K	157.45 J/K/mol
141.37 K	158.29 J/K/mol
141.56 K	157.55 J/K/mol
141.83 K	157.84 J/K/mol
142.01 K	159.46 J/K/mol
142.45 K	159.47 J/K/mol
142.89 K	158.79 J/K/mol
143.51 K	160.83 J/K/mol
143.52 K	160.62 J/K/mol
143.64 K	159.6 J/K/mol
143.94 K	159.82 J/K/mol
144.28 K	160.35 J/K/mol
144.6 K	161.74 J/K/mol
144.99 K	160.85 J/K/mol
145.18 K	162.59 J/K/mol
145.7 K	162.72 J/K/mol
145.73 K	161.63 J/K/mol
146.04 K	161.99 J/K/mol
146.16 K	163.13 J/K/mol
146.78 K	163.89 J/K/mol
147.09 K	162.84 J/K/mol
147.4 K	163.32 J/K/mol
147.81 K	163.57 J/K/mol
147.86 K	165.08 J/K/mol
148.14 K	163.74 J/K/mol
148.35 K	165.5 J/K/mol
148.79 K	165.6 J/K/mol
148.94 K	165.94 J/K/mol
149.18 K	164.71 J/K/mol
149.89 K	165.56 J/K/mol
150 K	165.6 J/K/mol
150.02 K	166.77 J/K/mol
150.23 K	165.8 J/K/mol
150.52 K	166.26 J/K/mol
150.77 K	167.63 J/K/mol
151.09 K	168 J/K/mol
151.27 K	167.02 J/K/mol
151.52 K	168.7 J/K/mol
151.97 K	167.63 J/K/mol
152.1 K	169 J/K/mol
152.17 K	169.13 J/K/mol
152.32 K	167.82 J/K/mol
153.24 K	170.02 J/K/mol
153.38 K	169.02 J/K/mol
153.43 K	170.11 J/K/mol
153.64 K	169.31 J/K/mol
154.06 K	169.63 J/K/mol
154.32 K	171.06 J/K/mol
154.42 K	169.98 J/K/mol
154.7 K	171.74 J/K/mol
154.77 K	171.25 J/K/mol
155.4 K	172.12 J/K/mol
155.47 K	171.07 J/K/mol
156.1 K	172.57 J/K/mol
156.15 K	171.68 J/K/mol
156.48 K	173.12 J/K/mol
156.52 K	172.03 J/K/mol
156.76 K	172.32 J/K/mol
157.44 K	173.97 J/K/mol
157.56 K	174.08 J/K/mol
157.57 K	172.98 J/K/mol
157.89 K	174.79 J/K/mol
158.24 K	173.62 J/K/mol
158.61 K	173.88 J/K/mol
158.64 K	175.11 J/K/mol
158.78 K	175.17 J/K/mol
159.66 K	174.82 J/K/mol
159.72 K	176.1 J/K/mol
159.88 K	175.23 J/K/mol
160 K	175.2 J/K/mol
160.11 K	176.48 J/K/mol
160.32 K	175.83 J/K/mol
160.71 K	175.82 J/K/mol
160.81 K	177.05 J/K/mol
161.09 K	177.82 J/K/mol
161.48 K	177.68 J/K/mol
161.75 K	176.91 J/K/mol
161.89 K	178.2 J/K/mol
162.41 K	177.56 J/K/mol
162.8 K	177.97 J/K/mol
162.82 K	178.9 J/K/mol
163 K	179.4 J/K/mol
163.01 K	178.38 J/K/mol
163.85 K	178.9 J/K/mol
164.09 K	180.26 J/K/mol
164.16 K	180.28 J/K/mol
164.29 K	180.86 J/K/mol
164.49 K	179.69 J/K/mol
164.89 K	179.88 J/K/mol
165.17 K	181.13 J/K/mol
165.49 K	181.52 J/K/mol
165.94 K	180.9 J/K/mol
166.13 K	181.26 J/K/mol
166.26 K	182.01 J/K/mol
166.58 K	181.3 J/K/mol
166.83 K	182.73 J/K/mol
166.99 K	181.72 J/K/mol
167.35 K	183.04 J/K/mol
167.49 K	183.69 J/K/mol
168.03 K	182.66 J/K/mol
168.17 K	183.76 J/K/mol
168.44 K	184.44 J/K/mol
168.67 K	183.22 J/K/mol
169.08 K	183.64 J/K/mol
169.26 K	184.18 J/K/mol
169.5 K	184.87 J/K/mol
169.53 K	185.06 J/K/mol
170 K	184.5 J/K/mol
170.13 K	184.56 J/K/mol
170.62 K	186.24 J/K/mol
170.71 K	186.66 J/K/mol
170.76 K	185.15 J/K/mol
170.84 K	186.28 J/K/mol
171.17 K	185.59 J/K/mol
171.71 K	187.47 J/K/mol
172.18 K	187.68 J/K/mol
172.38 K	187.03 J/K/mol
172.8 K	188.14 J/K/mol
172.85 K	187.26 J/K/mol
173.51 K	188.79 J/K/mol
173.89 K	188.9 J/K/mol
173.93 K	189.4 J/K/mol
174.85 K	189.91 J/K/mol
174.95 K	188.94 J/K/mol
174.98 K	190 J/K/mol
175.51 K	189.78 J/K/mol
176.07 K	191.28 J/K/mol
176.18 K	191.23 J/K/mol
177.04 K	190.61 J/K/mol
177.15 K	192.53 J/K/mol
177.16 K	191.97 J/K/mol
177.52 K	192.4 J/K/mol
178.25 K	192.97 J/K/mol
178.63 K	192.28 J/K/mol
178.85 K	193.69 J/K/mol
179.13 K	192.37 J/K/mol
179.35 K	194.03 J/K/mol
180 K	193.2 J/K/mol
180.19 K	194.75 J/K/mol
180.42 K	195.75 J/K/mol
180.47 K	195.63 J/K/mol
181.21 K	194.29 J/K/mol
181.52 K	196.05 J/K/mol
181.57 K	196.1 J/K/mol
181.75 K	194.99 J/K/mol
182.67 K	197.05 J/K/mol
182.89 K	197.45 J/K/mol
183.3 K	195.97 J/K/mol
183.65 K	198.96 J/K/mol
183.77 K	198.41 J/K/mol
184.23 K	198.67 J/K/mol
184.86 K	199.51 J/K/mol
184.87 K	197.91 J/K/mol
185.39 K	197.77 J/K/mol
185.55 K	200.51 J/K/mol
185.95 K	200.62 J/K/mol
186.89 K	201.62 J/K/mol and 202.38 J/K/mol
187.05 K	201.82 J/K/mol
187.48 K	199.99 J/K/mol
187.99 K	200.27 J/K/mol
188.14 K	203.75 J/K/mol
188.22 K	203.53 J/K/mol
189.25 K	204.46 J/K/mol
189.56 K	204.62 J/K/mol
189.57 K	201.44 J/K/mol
190 K	201.9 J/K/mol
190.12 K	206.13 J/K/mol
190.35 K	205.41 J/K/mol
190.88 K	206.97 J/K/mol
191.11 K	202.91 J/K/mol
191.45 K	206.67 J/K/mol
191.66 K	203.21 J/K/mol
192.21 K	207.95 J/K/mol
192.55 K	207.97 J/K/mol
193.37 K	209.23 J/K/mol
193.55 K	208.35 J/K/mol
193.65 K	208.94 J/K/mol
193.74 K	205.3 J/K/mol
194.23 K	206.14 J/K/mol
194.75 K	209.89 J/K/mol
194.87 K	210.1 J/K/mol
195.83 K	207.12 J/K/mol

— the NIST ThermoML archive (doi:10.1016/j.jct.2017.03.026)
